Test systems include A498; A549; COLO 205; HCT-15; K562; KM12; MCF7; MDA-MB-231; NCI-H522; OVCAR-5; PC-3; RPMI-8226; SN12C; SW-620; TK-10; U-251; UACC-62; UO-31; MDA-N; HCC 2998.
What all share (assay): inhibition of tumour cell growth, NCI panel, 48 h

The structures appear in SMILES notation.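 1) Cells in 96-well plates. 2) Compound, 48 h, 5 concentrations. 3) Linear interpolation between surrounding doses. 4) Unreached endpoint = highest concentration. GI50 is the concentration that inhibits growth by half.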 Calls of active or inactive are those of the source. Rule as the data show it: active = GI50 up to about 1.1 µM and inactive = higher.

`CSC(=S)NN=C1CCCC1.CSC(=S)NN=C1CCCC1.[Zn+2]`: the GI50 is > 100 µM (inactive) in the experiment with A498; 18.8 µM (inactive) in the experiment with A549; 34.6 µM (inactive) in the experiment on COLO 205; 1.99 µM in the experiment with HCT-15; 50.4 µM (inactive) in the experiment on K562; 41 µM (inactive) with KM12. The GI50 with MCF7 was 34.7 µM (inactive); in the experiment with MDA-MB-231 it was 17.8 µM (inactive); in the experiment with NCI-H522 it was 15.7 µM (inactive); in the experiment with OVCAR-5, 31.3 µM (inactive); in the experiment on PC-3, 25.8 µM (inactive); in the experiment with RPMI-8226, 11.5 µM (inactive). The GI50 in the experiment on SN12C is 17.9 µM (inactive); in the experiment with SW-620, 17.1 µM (inactive); in the experiment with TK-10, 19.8 µM (inactive); with U-251, 8.93 µM (inactive); in the experiment with UACC-62, 28.2 µM (inactive); in the experiment with UO-31 it was 13.4 µM (inactive).
`Cc1cc(C)c(N[S+]([O-])c2cccc(Cl)c2)c(C)c1` (stereo unspecified): the GI50 is 29.2 µM (inactive) in the experiment on A498; > 100 µM (inactive) with A549; > 100 µM (inactive) in the experiment on COLO 205; over 100 µM in the experiment on HCT-15; > 100 µM (inactive) in the experiment on K562; > 100 µM (inactive) in the experiment on KM12. Besides, the GI50 in the experiment on MCF7, in the experiment with MDA-N, in the experiment on OVCAR-5, with PC-3, with RPMI-8226 and in the experiment with SN12C was > 100 µM (inactive) throughout. The GI50 in the experiment on SW-620, with TK-10, in the experiment on U-251 and in the experiment on UO-31 was > 100 µM (inactive) throughout.
Turning to `Nc1ncc(Cc2nc3ccccc3s2)s1`, the GI50 in the experiment on A549 is 69.8 µM (inactive); with COLO 205, 34.4 µM (inactive); in the experiment on HCC 2998 it was > 100 µM (inactive); in the experiment with HCT-15 it was over 100 µM; in the experiment on K562 it was 56.4 µM (inactive); with KM12, 56.4 µM (inactive). The GI50 with MCF7 was 35.6 µM (inactive); in the experiment with MDA-MB-231, 69.8 µM (inactive); in the experiment with NCI-H522, 53.1 µM (inactive); in the experiment on OVCAR-5 it was > 100 µM (inactive); in the experiment with PC-3, 63.5 µM (inactive); with RPMI-8226 it was 18.5 µM (inactive). Besides, the GI50 was > 100 µM (inactive) in the experiment with SN12C; > 100 µM (inactive) with SW-620; 85.5 µM (inactive) in the experiment with TK-10; 90.4 µM (inactive) in the experiment on U-251; 54 µM (inactive) in the experiment with UACC-62; 68.9 µM (inactive) in the experiment on UO-31.
Consider `Cc1ccc(C2(c3ccc(F)cc3)OC(=O)c3ccccc32)c(O)c1` (stereo unspecified), for which the GI50 is 19.6 µM (inactive) in the experiment on A498; 15.8 µM (inactive) in the experiment on A549; 21.1 µM (inactive) in the experiment with COLO 205; 22.4 µM (inactive) in the experiment on HCC 2998; 15.2 µM in the experiment with HCT-15; 14.2 µM (inactive) with K562. In addition, the GI50 with KM12 was 15.5 µM (inactive); in the experiment with MCF7, 17 µM (inactive); in the experiment with MDA-MB-231, 17.9 µM (inactive); with MDA-N it was 12 µM (inactive); in the experiment with NCI-H522 it was 14.5 µM (inactive); with OVCAR-5, 14.4 µM (inactive). Also, the GI50 in the experiment with RPMI-8226 was 16.4 µM (inactive); in the experiment with SN12C it was 14.7 µM (inactive); with SW-620 it was 13.6 µM (inactive); in the experiment on TK-10, 15.1 µM (inactive); with U-251, 18.5 µM (inactive); in the experiment with UACC-62 it was 10.5 µM (inactive). Besides, the GI50 with UO-31 was 5.5 µM (inactive).
For the molecule `CC1(O)Oc2ccc3ccccc3c2C=C1C(N)=O` (stereo unspecified), the GI50 in the experiment with A498 is 28.1 µM (inactive); with COLO 205, > 100 µM (inactive); in the experiment with HCC 2998, > 100 µM (inactive); with HCT-15, 53.7 µM; in the experiment with K562, > 100 µM (inactive); in the experiment with KM12 it was > 100 µM (inactive). Further, the GI50 with MCF7 was > 100 µM (inactive); with MDA-MB-231 it was 38.9 µM (inactive); with PC-3, 64.9 µM (inactive); in the experiment on RPMI-8226, 33.3 µM (inactive); with SW-620, > 100 µM (inactive); in the experiment with TK-10, > 100 µM (inactive). Moreover, the GI50 in the experiment on U-251, with UACC-62 and in the experiment on UO-31 was > 100 µM (inactive) in each case.
Take `O=S(=O)(c1ccccc1)N1CN2CN(C1)CN(S(=O)(=O)c1ccccc1)C2`: the GI50 with A498 was > 100 µM (inactive); with A549, > 100 µM (inactive); with COLO 205 it was > 100 µM (inactive); with HCC 2998, > 100 µM (inactive); in the experiment on HCT-15, over 100 µM; in the experiment on K562, > 100 µM (inactive). In addition, the GI50 in the experiment on KM12, with MCF7, with MDA-MB-231, with OVCAR-5, in the experiment on PC-3 and in the experiment on RPMI-8226 was > 100 µM (inactive) each time. The GI50 in the experiment with SN12C was > 100 µM (inactive); in the experiment on SW-620, > 100 µM (inactive); with TK-10, > 100 µM (inactive); in the experiment on U-251, 97.3 µM (inactive); with UACC-62 it was > 100 µM (inactive); in the experiment on UO-31, > 100 µM (inactive).
For the molecule `Cc1cc(C)nc(NC(=S)Nc2ccccc2Cl)c1`, the GI50 was > 100 µM (inactive) in the experiment with A498; > 100 µM (inactive) in the experiment on A549; > 100 µM (inactive) in the experiment on COLO 205; over 100 µM with HCT-15; > 100 µM (inactive) in the experiment on K562; > 100 µM (inactive) in the experiment on KM12. Further, the GI50 in the experiment with MCF7, in the experiment on MDA-N, with NCI-H522, in the experiment on OVCAR-5, with PC-3 and in the experiment on RPMI-8226 was > 100 µM (inactive) each time. Also, the GI50 with SN12C, with SW-620, with TK-10, in the experiment on U-251, with UACC-62 and with UO-31 was > 100 µM (inactive) throughout.
`COc1ccc(C2=C3SC=c4ccccc4=C3ON=C2c2ccccc2)cc1`: the GI50 with A498 is > 100 µM (inactive); in the experiment on A549, > 100 µM (inactive); in the experiment on COLO 205 it was > 100 µM (inactive); in the experiment on HCC 2998, > 100 µM (inactive); in the experiment with HCT-15, over 100 µM; with K562, 22.9 µM (inactive). Moreover, the GI50 is > 100 µM (inactive) with KM12; > 100 µM (inactive) in the experiment on MCF7; > 100 µM (inactive) with MDA-MB-231; 53.8 µM (inactive) in the experiment with NCI-H522; > 100 µM (inactive) in the experiment on OVCAR-5; > 100 µM (inactive) in the experiment on PC-3. The GI50 with RPMI-8226 is 69.2 µM (inactive); with SN12C, > 100 µM (inactive); in the experiment on SW-620, > 100 µM (inactive); with TK-10 it was > 100 µM (inactive); in the experiment with U-251, > 100 µM (inactive); in the experiment on UACC-62, > 100 µM (inactive). For the same molecule, the GI50 with UO-31 was > 100 µM (inactive).
As for `O=C(/C=C/c1c(O)nc2ccccc2c1O)CC(=O)C(=O)Nc1cccc(O)c1`, the GI50 is > 100 µM (inactive) in the experiment on A498; > 100 µM (inactive) in the experiment with A549; > 100 µM (inactive) in the experiment on COLO 205; > 100 µM (inactive) in the experiment with HCC 2998; over 100 µM in the experiment on HCT-15; > 100 µM (inactive) in the experiment on K562. Also, the GI50 in the experiment with KM12, with MCF7, with MDA-MB-231, in the experiment with NCI-H522, in the experiment on OVCAR-5 and in the experiment with PC-3 was > 100 µM (inactive) throughout. The GI50 with RPMI-8226, in the experiment on SN12C, in the experiment with SW-620, in the experiment on TK-10, with U-251 and in the experiment on UACC-62 was > 100 µM (inactive) each time. Moreover, the GI50 with UO-31 is > 100 µM (inactive).
Regarding `CC/C(=C/OC)P1(=O)OC(C)(C)CN1C(C)(C)C` (stereo unspecified), the GI50 is > 100 µM (inactive) with A498; > 100 µM (inactive) in the experiment on A549; > 100 µM (inactive) in the experiment with COLO 205; > 100 µM (inactive) with HCC 2998; over 100 µM with HCT-15; > 100 µM (inactive) in the experiment on K562. In addition, the GI50 with KM12, in the experiment with MCF7, with MDA-MB-231, in the experiment with OVCAR-5, with PC-3 and with RPMI-8226 was > 100 µM (inactive) in each case. The GI50 with SW-620, with TK-10, with U-251, in the experiment with UACC-62 and in the experiment with UO-31 was > 100 µM (inactive) each time.
Consider `C[N+](C)(C)CC(=O)N/N=C(\Cc1nc2ccc([N+](=O)[O-])cc2nc1O)C(=O)Nc1nc2ccc([N+](=O)[O-])cc2s1`, for which the GI50 is 51.5 µM (inactive) in the experiment on A498; 36.3 µM (inactive) in the experiment on A549; 48.8 µM (inactive) in the experiment on COLO 205; 36.9 µM (inactive) with HCC 2998; 28 µM in the experiment with HCT-15; 86.3 µM (inactive) in the experiment with K562. Further, the GI50 in the experiment with KM12 is 45.2 µM (inactive); in the experiment with MCF7, 29.4 µM (inactive); with MDA-MB-231, > 100 µM (inactive); in the experiment on NCI-H522, 13.3 µM (inactive); with OVCAR-5, > 100 µM (inactive); with PC-3, 27.1 µM (inactive). In addition, the GI50 with RPMI-8226 is 34.5 µM (inactive); in the experiment on SN12C it was 89.1 µM (inactive); with SW-620, 78 µM (inactive); in the experiment with TK-10 it was 67.6 µM (inactive); with U-251 it was 56.6 µM (inactive); in the experiment with UACC-62, 62.2 µM (inactive). For the same molecule, the GI50 in the experiment with UO-31 is 25.7 µM (inactive).

Source of the values: ChEMBL document CHEMBL1201862, “PubChem BioAssay data set” (2004).
